Test results reported in US9427426B2 (priority 2008, dated 2016).

Key:
[1] = system: rats intoxicated with mercury (mercury chloride); assay: Example 1: erdosteine per os vs NAC per os in rats intoxicated with mercury; format: in vivo, Wistar rats; conditions: erdosteine 875 mg/kg or NAC 500 mg/kg per os once a day for 7 days
Experimental: 3. […] NAC has been mixed with bidistilled water, the resulting solution being administered in volume of 10 ml/kg.
4. […] Erdosteine has been mixed with bidistilled water and sodium hydrogen carbonate equimolar, the resulting solution being administered in volume of 10 ml/kg.
Mortality has been recorded. […] Few animals have been collected urine eliminated spontaneously for Pb—Hg analysis. Animals have been sacrificed under general anesthesia with ether. 6 animals of each group (3 males and 3 females) have been randomly selected for macroscopic and microscopic anatomic-pathological examination.

[2] = Example 2: erdosteine toxicity i.v. (lot 11); format: in vivo, Wistar rats; conditions: both sexes, Wistar, in vivo, iv, 3500 mg/kg; rat, i.v.; read-out: LD50 of i.v. form of erdosteine
Source text: (§1) These lots have been evaluated only for mortality.

rats = assay: Example 2: erdosteine toxicity i.v. (lot 11); format: in vivo, Wistar rats; conditions: erdosteine 3500 mg/kg i.v. slowly; 10 animals, not metal intoxicated
Source text: as §1

[3] = system: rats intoxicated with paracetamol; assay: Example 4: erdosteine i.v. vs NAC i.v. in rats intoxicated with paracetamol; format: in vivo, Wistar rats
Source text: Experiment has been carried on in parallel with experiment of example 3 and results of animals not intoxicated not treated (lot1) have been used as reference.
3. […] NAC has been dissolved in bidistilled water.
Animals have been monitored as described in example 3.
Mortality has been recorded.

[4] = system: rats intoxicated with lead (lead acetate); assay: Example 5: erdosteine prophylaxis per os plus i.v. treatment in lead intoxication; format: in vivo, rats Wistar; design: RBC / ALT / Hct / MCH / Hb / WBC / Urea / Uric acid / AST: unit not given here
Experimental: The experiment has been structured for subjects that at a certain moment might be at higher risk to be intoxicated, for professional or other reasons. After intoxication the animals have been treated i.v.
Experiment has been carried out in parallel with example 3. Whatever not specified is identical with example 3.
Lot 14 One lot of 30 rats Wistar (15 males and 15 females) have been introduced in the experiment.
At day −2, day −1 and day 0 the animals have been administered 300 mg/kg erdosteine per os. At day 0, four hours after administration of erdosteine, the animals have been intoxicated with lead as described in example 3. After lead intoxications animals have been treated with erdosteine 350 mg/kg with the same protocol as described in example 3. […] Results have been compared with lot 2 since the experiments were carried out in parallel and results can be compared.

rat = conditions: cited from earlier work
[5] = water (NAC: at 20° C.); cited from earlier work
[6] = Hg intoxicated (mercury chloride 42 mg/kg per os), 30 animals/lot
[7] = survivors after 7 days, Hg intoxicated
[8] = paracetamol […] per os, erdosteine 350 mg/kg i.v. or NAC 114 mg/kg i.v. once a day for 7 days, 30 animals/lot
[9] = paracetamol intoxicated, erdosteine 350 mg/kg i.v. or NAC 114 mg/kg i.v., 7 days
[10] = survivors at 7 days, paracetamol intoxicated, erdosteine 350 mg/kg i.v. or NAC 114 mg/kg i.v.
[11] = lot 14: erdosteine 300 mg/kg per os at day -2, -1, 0, then lead acetate 4665 mg/kg per os and erdosteine 350 mg/kg i.v. once a day for 7 days, 30 rats
[12] = lot 14 survivors day 7, prophylaxis per os + Pb intoxication + erdosteine 350 mg/kg i.v.
[13] = lot 14 day 0 before intoxication, after erdosteine 300 mg/kg per os at day -2, -1, 0

With O=C(O)CSCC(=O)NC1CCSC1=O (stereo not shown) [erdosteine, Erdosteine] the Mortality in percent [1, 6] was 16.6%, the Mortality total [1, 6] was 5^1 and the “Anatomical pathology: lesions (macroscopic and microscopic examination)” value ([1]; Hg intoxicated) was “less important lesions”. The “Hg in urine mean values” ([1]; Hg intoxicated, GS MS Varian 4100) was 14.7 mg/L, the Creatinine mean values [1, 7] was 0.47 ^1, 2 mK/dl and the Haematocrit mean values [1, 7] was 38.58^3. The Haemoglobin mean values [1, 7] was 13.75^3 g/dl, the Leucocytes mean values [1, 7] was 7.81^3 and the Urea mean values [1, 7] was 49.18 ^1, 2 mg/dl. The “Uric acid mean value” [1, 7] was 2.40 ^1 mg/dl, the erythrocytes mean values [1, 7] was 6.81^3 *10^6/mm^3 and the LD50 [2] was over 3500 mg/kg. For the same molecule, the Mortalitaty total (rats) was 1/10, the Mortality in percent (rats) was 10% and the Mortality percentual [3, 8] was 27%. The Total mortality [3, 8] was 8/30, the “Renal aggression (urine summary), in words” value ([3]; paracetamol intoxicated, erdosteine 350 mg/kg i.v. or NAC 114 mg/kg i.v.) was “antagonized” and the “Urine summary: Bil.” value [3, 9] was 1 mg/dL. For the same molecule, the “Urine summary: Chet” value [3, 9] was “neg”, the “Urine summary: Density” value [3, 9] was 1020 and the “Urine summary: Erythrocyte” value [3, 9] was 25 µL⁻¹. For the same molecule, the “Urine summary: Glucose” value [3, 9] was “neg”, the “Urine summary: Leuc” value [3, 9] was 10 µL⁻¹ and the “Urine summary: Prot.” value [3, 9] was 50 mg/dL. The “Urine summary: UBG” value [3, 9] was 1 mg/dL, the “Urine summary: pH” value [3, 9] was 7 and the ALT [3, 10] was 165.4^2,3. The AST [3, 10] was 45.2^2, the HCT [3, 10] was 42.9^1 and the PLT [3, 10] was 749.8^2,3. The RBC [3, 10] was 7.45^1, the Urea [3, 10] was 55.2^2,3 and the Uric acid [3, 10] was 1.934^2,3. The Mortality % [4, 11] was 20%, the Total mortality [4, 11] was 6/30 ^2 and the ALT [4, 12] was 165.4^1,2. For the same molecule, the AST [4, 12] was 48.9^1,2, the Hb [4, 12] was 17.12 and the Hct [4, 12] was 43.81. The MCH [4, 12] was 23.12, the PLT [4, 12] was 605 and the RBC [4, 12] was 7.446. The Urea [4, 12] was 62.2^1,2, the Uric acid [4, 12] was 2.71 and the WBC [4, 12] was 6.98. It also gave an ALT [4, 13] of 166.2, an AST [4, 13] of 36.2 and a Hb [4, 13] of 19.96. It also gave a Hct [4, 13] of 47.45, an MCH [4, 13] of 25.12 and a PLT [4, 13] of 793. It also gave an RBC [4, 13] of 7.93, a Urea [4, 13] of 54.86 and a Uric acid [4, 13] of 1.95. For the same molecule, the WBC [4, 13] was 4.90, the LD50 per os (rat; per os, rat where given) was 8750 mg/kg and the LD50 i.v. (rat; rat, i.v.) was over 3500 mg/kg. For the same molecule, the “solubility in water, in words” value [5] was “moderately soluble”.
